Results on 24 molecules are retold here after ChEMBL document CHEMBL2424611, “Identification of potent, selective, CNS-targeted inverse agonists of the ghrelin receptor” (Bioorg Med Chem Lett, 2013).

For data set [1], the target named is T1, Muscarinic acetylcholine receptor M2 (Homo sapiens, UniProt P08172).
T1 sequence (P08172 whole entry): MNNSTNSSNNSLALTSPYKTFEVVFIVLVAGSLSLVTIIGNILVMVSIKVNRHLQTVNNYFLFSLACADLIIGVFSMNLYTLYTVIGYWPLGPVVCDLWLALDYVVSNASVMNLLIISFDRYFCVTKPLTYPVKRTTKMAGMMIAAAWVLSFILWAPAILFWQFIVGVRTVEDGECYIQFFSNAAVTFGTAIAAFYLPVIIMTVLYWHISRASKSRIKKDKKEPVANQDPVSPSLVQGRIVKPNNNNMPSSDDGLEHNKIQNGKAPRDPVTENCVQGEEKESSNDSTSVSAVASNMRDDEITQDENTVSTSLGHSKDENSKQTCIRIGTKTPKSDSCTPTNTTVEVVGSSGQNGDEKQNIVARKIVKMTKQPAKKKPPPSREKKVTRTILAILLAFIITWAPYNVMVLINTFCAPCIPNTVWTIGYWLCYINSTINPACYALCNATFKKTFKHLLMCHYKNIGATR
Put plainly: Displacement of N-methyl [3H]-scopolamine from recombinant human muscarinic acetylcholine receptor M2 expressed in CHO cells after 2 hrs by liquid scintillation counting. Type of data set: cell-based. To be noted: for pKi: cho.

Data set [2] concerns the target T2, Growth hormone secretagogue receptor type 1 (Homo sapiens, UniProt Q92847). Put plainly: Displacement of [125I]-ghrelin from human GHS-R1a expressed in tetracycline inducible HEK293 cells after 8 hrs by liquid scintillation counting. Type of data set: cell-based. As to conditions: for pKi: hek293. For orientation: Displacement assays read how much labelled ligand stays bound in the presence of the test substance.

Data set [3] concerns the target T1, Muscarinic acetylcholine receptor M2. In words: Binding affinity to muscarinic acetylcholine receptor M2 (unknown origin).
The test system of data set [4] is Rattus norvegicus. In words: Ex vivo receptor occupancy of GHS-R1a in Sprague-Dawley rat hypothalamus at 10 mg/kg, po measured at 1 hr by liquid scintillation counting in presence of [His [125I]]-Ghrelin. The class given is functional.
In data set [5] the target is T2, Growth hormone secretagogue receptor type 1. In words: Inverse agonist activity at human GHS-R1a expressed in tetracycline inducible HEK293 cells incubated for 24 hrs prior to europium-labeled GTP addition measured after 90 mins by DELFIA assay. The class given is cell-based. Also noted: Activity: concentration or dose not given beside the values.
Data set [6] in a line: Apparent intrinsic clearance in human liver microsomes. The class given is ADME, Microsome. To be noted: read-out: CLH(app). A general note: Liver microsomes are vesicles of endoplasmic reticulum, rich in cytochrome P450 enzymes.
Data set [7] deals with human MDR1 (P-gp). Put plainly: Efflux ratio of permeability in MDCK cells expressing human MDR-1 gene. As to conditions: dog. The class given is ADME, cell-based, Canis lupus familiaris.

T2 sequence (Q92847 whole entry): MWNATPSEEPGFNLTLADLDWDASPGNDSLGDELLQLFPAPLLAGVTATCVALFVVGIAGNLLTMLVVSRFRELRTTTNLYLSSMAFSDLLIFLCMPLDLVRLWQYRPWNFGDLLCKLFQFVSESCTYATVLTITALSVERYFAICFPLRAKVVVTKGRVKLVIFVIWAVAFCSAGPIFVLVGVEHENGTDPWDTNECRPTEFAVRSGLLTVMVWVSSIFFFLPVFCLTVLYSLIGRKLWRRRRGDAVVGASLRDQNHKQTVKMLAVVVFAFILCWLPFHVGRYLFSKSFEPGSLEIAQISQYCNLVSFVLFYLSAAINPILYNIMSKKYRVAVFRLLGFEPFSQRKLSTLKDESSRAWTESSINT

In the case of `COc1ccc(CC(=O)N2CCC3(CC2)CN(C2CCc4cc(-c5ncccn5)ccc42)C3)nc1` (racemic), the Ki in data set [1] is 1620 nM. Further, the IC50 in data set [2] was 37.2 nM.

Take `COc1ccc(CC(=O)N2CCC3(CC2)CN(Cc2ccc(-c4ncccn4)cc2Cl)C3)cc1`: in data set [1], the Ki is 1950 nM. In data set [2], this molecule gave an IC50 of 15.8 nM.

Turning to `Cc1cn2cc(CC(=O)N3CCC4(CC3)CN(Cc3ccc(-n5nccn5)cc3Cl)C4)nc2s1`, the Ki in data set [3] is 269 nM.

Take `COc1ccc(CC(=O)N2CCC3(CC2)CN([C@H](C)c2ccc(-c4ncccn4)cc2)C3)nc1`: the inhibition constant Ki was 20000 nM in data set [1] and 25100 nM in data set [2].

Consider `COc1ccc(CC(=O)N2CCC3(CC2)CN([C@@H]2CCc4cc(-c5nccs5)ccc42)C3)nc1`, for which the Occ in data set [4] is 35%. In data set [5], the Activity was found to be 39% and the pKb stood at 7.4. Moreover, in data set [1], the pKi was less than 4.25. In data set [2], this molecule had a Ki of 3.98 nM.

Regarding `COc1ccc(CC(=O)N2CCC3(CC2)CN([C@@H]2CCc4cc(-n5nccn5)ccc42)C3)nc1`, in data set [4], the Occ amounted to 50%. In data set [5], this molecule yielded an Activity of 42% and a pKb of 7.57. Moreover, the pKi in data set [1] was less than 4.42.

As for `COc1ccc(CC(=O)N2CCC3(CC2)CN(C2CCc4cc(-c5nccs5)ccc42)C3)nc1` (configuration not stated), the Ki in data set [1] is 871 nM. Also, the IC50 in data set [2] is 30.2 nM.

Regarding `COc1ccc(CC(=O)N2CCC3(CC2)CN([C@@H](c2ccc(-c4ncccn4)cc2)C(C)C)C3)nc1`, in data set [1], the Ki was 47.9 nM. Moreover, the pKi in data set [2] is less than 4.53.

On to `COc1ccc(CC(=O)N2CCC3(CC2)CN([C@H]2CCc4cc(-c5ncccn5)ccc42)C3)nc1`, for which the Ki in data set [1] was 407 nM. In addition, the IC50 in data set [2] was 1100 nM.

`COc1ccc(CC(=O)N2CCC3(CC2)CN([C@@H]2CCc4cc(-n5nccn5)ccc42)C3)cc1`: the Occ in data set [4] worked out at 74%. For the same molecule, in data set [5], the Activity was found to be 21% and the negative-log Kb (pKb) worked out at 8.27. Further, the pKi in data set [1] is less than 4.26. This molecule gave an inhibitory constant (Ki) in data set [2] of 7.41 nM.

As for `CCc1ccc(CC(=O)N2CCC3(CC2)CN([C@@H]2CCc4cc(-c5ncccn5)ccc42)C3)nc1`, the Occ in data set [4] amounted to 10%. In data set [5], the Activity turned out to be 22% and the pKb was determined as 7.13. The Ki in data set [1] is 28200 nM. Moreover, the Ki in data set [2] was 15.5 nM.

`CCc1cnc(-c2ccc3c(c2)CC[C@H]3N2CC3(CCN(C(=O)Cc4ccc(OC)cn4)CC3)C2)nc1`: in data set [4], the Occ came out at 64%. Also, in data set [5], the Activity is 29% and the pKb worked out at 7.37. The pKi in data set [1] is less than 4.17.

On to `COc1ccc(CC(=O)N2CCC3(CC2)CN([C@@H](C)c2ccc(-c4ncccn4)cc2)C3)nc1`, for which the inhibition constant Ki was 2240 nM in data set [1] and 1120 nM in data set [2].

Turning to `COCC(c1ccc(-c2ncccn2)cc1)N1CC2(CCN(C(=O)Cc3ccc(OC)cn3)CC2)C1` (configuration not stated), the Ki in data set [1] was 7080 nM; in data set [2] it was 3630 nM.

In the case of `CCc1ccc(CC(=O)N2CCC3(CC2)CN([C@@H]2CCc4cc(-n5nccn5)ccc42)C3)nc1`, the Occ in data set [4] is 74%. In data set [5], this molecule yielded an Activity of 23% and a negative logarithm of the Kb (pKb) of 7.38. Moreover, the pKi in data set [1] is less than 4.59.

With `Cc1ccc(CC(=O)N2CCC3(CC2)CN([C@@H]2CCc4cc(-c5ncccn5)ccc42)C3)nc1`, the microsomal CLint in data set [6] turned out to be 22 µL/min/mg. Moreover, the Occ in data set [4] stood at 0.2%. Further, in data set [5], the Activity amounted to 21% and the pKb came to 6.98. Besides, in data set [1], the pKi was less than 4.56. Also, the efflux ratio in data set [7] came to 2.

Consider `Cc1ccc(CC(=O)N2CCC3(CC2)CN([C@@H]2CCc4cc(-n5nccn5)ccc42)C3)nc1`, for which, in data set [4], the Occ is reported as 23%. In data set [5], the Activity came out at 40% and the pKb amounted to 7.23. In addition, the Ki in data set [1] was 21900 nM.

Regarding `COc1ccc(CC(=O)N2CCC3(CC2)CN([C@@H]2CCc4cc(-c5ncc(C)cn5)ccc42)C3)nc1`, the Occ in data set [4] came to 5%. In data set [5], this molecule came in with an Activity of 40% and a pKb of 7.07. In addition, in data set [1], the negative logarithm of the Ki (pKi) was less than 4.17.

`COc1ccc(CC(=O)N2CCC3(CC2)CN([C@H]2CCc4cc(-c5nccs5)ccc42)C3)nc1`: the results for the Ki in data set [1] and in data set [2] were 1550 nM and 1380 nM, respectively.

In the case of `COc1ccc(CC(=O)N2CCC3(CC2)CN([C@H](c2ccc(-c4ncccn4)cc2)C(C)C)C3)nc1`, the Ki in data set [1] was 912 nM. Further, the negative-log Ki (pKi) in data set [2] is less than 4.68.

In the case of `COc1ccc(CC(=O)N2CCC3(CC2)CN([C@@H]2CCc4cc(-c5ncccn5)ccc42)C3)cc1`, the Occ in data set [4] is 85%.

Consider `COc1ccc(CC(=O)N2CCC3(CC2)CN(C(c2ccc(-c4ncccn4)cc2)C(C)C)C3)nc1` (configuration not stated), for which, in data set [1], the Ki is 151 nM. Further, the pKi in data set [2] is less than 4.52.

Regarding `COc1ccc(CC(=O)N2CCC3(CC2)CN([C@@H]2CCc4cc(-c5ncccn5)ccc42)C3)nc1`, the Occ in data set [4] came out at 45%. In data set [5], this molecule displayed an Activity of 42% and a negative logarithm of the Kb (pKb) of 7.6. For the same molecule, in data set [1], the Ki is 14500 nM. In data set [2], this molecule showed a Ki of 29.5 nM.

With `COc1ccc(CC(=O)N2CCC3(CC2)CN(C(C)c2ccc(-c4ncccn4)cc2)C3)nc1` (configuration not stated), the Ki in data set [1] was 2400 nM; in data set [2] it was 1700 nM.

By Ki is commonly meant the dissociation constant of the complex between target and ligand, obtained from inhibition or displacement. Usually IC50 stands for the concentration that gives 50% inhibition. Broadly, the pKb is −log10 of the Kb, conventionally taken in molar units. One may read the pKi as −log10 of the Ki, conventionally taken in molar units. The efflux ratio is the permeability from basolateral to apical divided by that in the opposite direction, in the common usage.
